Source: ChEMBL document CHEMBL1201862, “PubChem BioAssay data set” (2004)
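The compound was tested at five concentrations on cells cultured in 96-well plates, with a 48-hour exposure period. Abbreviation: GI50, concentration required for 50% inhibition of growth.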 Activity calls are given as the source filed them. No stated cut-off is given here; in the data, active = GI50 up to about 1.1 µM and inactive = higher.

What was measured:
Experiment in all cases: NCI-60 cell line screen, 48 h
[1] = tested on: 786-0
[2] = tested on: A498
[3] = tested on: A549
[4] = tested on: ACHN
[5] = tested on: CAKI-1
[6] = tested on: CCRF-CEM
[7] = tested on: COLO 205
[8] = tested on: DU-145
[9] = tested on: EKVX
[10] = tested on: HCT-116
[11] = tested on: HCT-15
[12] = tested on: HL-60
[13] = tested on: HOP-62
[14] = tested on: HT-29
[15] = tested on: Hs-578T
[16] = tested on: IGROV-1
[17] = tested on: K562
[18] = tested on: KM12
[19] = tested on: LOX IMVI
[20] = tested on: M14
[21] = tested on: MCF7
[22] = tested on: MDA-MB-231
[23] = tested on: MDA-MB-435
[24] = tested on: MDA-N
[25] = tested on: MOLT-4
[26] = tested on: NCI-H226
[27] = tested on: NCI-H23
[28] = tested on: NCI-H460
[29] = tested on: NCI-H522
[30] = tested on: NCI/ADR-RES
[31] = tested on: OVCAR-3
[32] = tested on: OVCAR-4
[33] = tested on: OVCAR-5
[34] = tested on: OVCAR-8
[35] = tested on: RPMI-8226
[36] = tested on: RXF 393
[37] = tested on: SF-268
[38] = tested on: SF-295
[39] = tested on: SF-539
[40] = tested on: SK-MEL-28
[41] = tested on: SK-MEL-2
[42] = tested on: SK-MEL-5
[43] = tested on: SK-OV-3
[44] = tested on: SN12C
[45] = tested on: SNB-19
[46] = tested on: SNB-75
[47] = tested on: SR
[48] = tested on: SW-620
[49] = tested on: T47D
[50] = tested on: TK-10
[51] = tested on: U-251
[52] = tested on: UACC-257
[53] = tested on: UACC-62
[54] = tested on: UO-31
[55] = tested on: HOP-92
[56] = tested on: PC-3

## Nc1nc(N)c2nc(CNc3ccc(C(=O)NC(CCC(=O)O)C(=O)O)cc3F)cnc2n1 (stereo not drawn)
[1]
  GI50: < 0.01 µM (active)
[2]
  GI50: < 0.01 µM (active)
[3]
  GI50: < 0.01 µM (active)
[4]
  GI50: < 0.01 µM (active)
[5]
  GI50: < 0.01 µM (active)
[6]
  GI50: < 0.01 µM (active)
[7]
  GI50: > 48.2 µM (inactive)
[8]
  GI50: < 0.01 µM (active)
[9]
  GI50: < 0.01 µM (active)
[10]
  GI50: < 0.01 µM (active)
[11]
  GI50: < 0.01 µM
[12]
  GI50: < 0.01 µM (active)
[13]
  GI50: < 0.01 µM (active)
[14]
  GI50: < 0.01 µM (active)
[15]
  GI50: > 100 µM (inactive)
[16]
  GI50: < 0.01 µM (active)
[17]
  GI50: < 0.01 µM (active)
[18]
  GI50: < 0.01 µM (active)
[19]
  GI50: < 0.01 µM (active)
[20]
  GI50: < 0.01 µM (active)
[21]
  GI50: < 0.01 µM (active)
[22]
  GI50: > 57.9 µM (inactive)
[23]
  GI50: < 0.01 µM (active)
[24]
  GI50: < 0.01 µM (active)
[25]
  GI50: < 0.01 µM (active)
[26]
  GI50: > 100 µM (inactive)
[27]
  GI50: < 0.01 µM (active)
[28]
  GI50: < 0.01 µM (active)
[29]
  GI50: < 0.01 µM (active)
[30]
  GI50: < 0.01 µM (active)
[31]
  GI50: 45.1 µM (inactive)
[32]
  GI50: > 81.7 µM (inactive)
[33]
  GI50: > 100 µM (inactive)
[34]
  GI50: < 0.01 µM (active)
[35]
  GI50: < 0.01 µM (active)
[36]
  GI50: > 100 µM (inactive)
[37]
  GI50: < 0.01 µM (active)
[38]
  GI50: < 0.01 µM (active)
[39]
  GI50: < 0.01 µM (active)
[40]
  GI50: > 100 µM (inactive)
[41]
  GI50: > 59 µM (inactive)
[42]
  GI50: < 0.0128 µM (active)
[43]
  GI50: > 100 µM (inactive)
[44]
  GI50: < 0.01 µM (active)
[45]
  GI50: < 0.01 µM (active)
[46]
  GI50: 16.1 µM (inactive)
[47]
  GI50: < 0.01 µM (active)
[48]
  GI50: < 0.01 µM (active)
[49]
  GI50: < 0.01 µM (active)
[50]
  GI50: > 100 µM (inactive)
[51]
  GI50: < 0.01 µM (active)
[52]
  GI50: > 100 µM (inactive)
[53]
  GI50: < 0.01 µM (active)
[54]
  GI50: < 0.01 µM (active)

## CC(CN(C)C)Nc1c2ccccc2nc2cccc([N+](=O)[O-])c12 (stereo not drawn)
[29]
  GI50: < 0.0153 µM (active)
[36]
  GI50: < 0.01 µM (active)
[41]
  GI50: < 0.01 µM (active)

## CC#Cc1ccc(-c2ccccc2)s1
[1]
  GI50: > 100 µM (inactive)
[2]
  GI50: > 100 µM (inactive)
[3]
  GI50: > 100 µM (inactive)
[4]
  GI50: > 100 µM (inactive)
[5]
  GI50: > 100 µM (inactive)
[6]
  GI50: > 100 µM (inactive)
[7]
  GI50: > 100 µM (inactive)
[8]
  GI50: > 100 µM (inactive)
[9]
  GI50: > 100 µM (inactive)
[10]
  GI50: > 100 µM (inactive)
[11]
  GI50: > 100 µM
[12]
  GI50: > 100 µM (inactive)
[55]
  GI50: > 100 µM (inactive)
[14]
  GI50: > 100 µM (inactive)
[15]
  GI50: > 100 µM (inactive)
[16]
  GI50: > 100 µM (inactive)
[18]
  GI50: > 100 µM (inactive)
[19]
  GI50: > 100 µM (inactive)
[20]
  GI50: > 100 µM (inactive)
[21]
  GI50: > 100 µM (inactive)
[22]
  GI50: > 100 µM (inactive)
[23]
  GI50: > 100 µM (inactive)
[24]
  GI50: > 100 µM (inactive)
[25]
  GI50: > 100 µM (inactive)
[26]
  GI50: > 100 µM (inactive)
[27]
  GI50: 68.9 µM (inactive)
[28]
  GI50: > 100 µM (inactive)
[29]
  GI50: > 100 µM (inactive)
[30]
  GI50: > 100 µM (inactive)
[31]
  GI50: > 100 µM (inactive)
[32]
  GI50: > 100 µM (inactive)
[33]
  GI50: > 100 µM (inactive)
[34]
  GI50: > 100 µM (inactive)
[56]
  GI50: > 100 µM (inactive)
[36]
  GI50: > 100 µM (inactive)
[37]
  GI50: > 100 µM (inactive)
[38]
  GI50: > 100 µM (inactive)
[39]
  GI50: > 100 µM (inactive)
[40]
  GI50: > 100 µM (inactive)
[41]
  GI50: > 100 µM (inactive)
[42]
  GI50: > 100 µM (inactive)
[44]
  GI50: > 100 µM (inactive)
[45]
  GI50: > 100 µM (inactive)
[46]
  GI50: > 100 µM (inactive)
[47]
  GI50: > 100 µM (inactive)
[48]
  GI50: > 100 µM (inactive)
[50]
  GI50: > 100 µM (inactive)
[51]
  GI50: > 100 µM (inactive)
[52]
  GI50: > 100 µM (inactive)
[53]
  GI50: > 100 µM (inactive)
[54]
  GI50: > 100 µM (inactive)
